# Measurements: PMC6188150, “A small molecule regulator of tissue transglutaminase conformation inhibits the malignant phenotype of cancer cells” (Oncotarget, 2018)
# Molecular target: T1, tissue transglutaminase (tTG) (Homo sapiens, UniProt P21980)
# T1 construct: gene TGM2; recombinant tTG
# T1 sequence (P21980 2-687): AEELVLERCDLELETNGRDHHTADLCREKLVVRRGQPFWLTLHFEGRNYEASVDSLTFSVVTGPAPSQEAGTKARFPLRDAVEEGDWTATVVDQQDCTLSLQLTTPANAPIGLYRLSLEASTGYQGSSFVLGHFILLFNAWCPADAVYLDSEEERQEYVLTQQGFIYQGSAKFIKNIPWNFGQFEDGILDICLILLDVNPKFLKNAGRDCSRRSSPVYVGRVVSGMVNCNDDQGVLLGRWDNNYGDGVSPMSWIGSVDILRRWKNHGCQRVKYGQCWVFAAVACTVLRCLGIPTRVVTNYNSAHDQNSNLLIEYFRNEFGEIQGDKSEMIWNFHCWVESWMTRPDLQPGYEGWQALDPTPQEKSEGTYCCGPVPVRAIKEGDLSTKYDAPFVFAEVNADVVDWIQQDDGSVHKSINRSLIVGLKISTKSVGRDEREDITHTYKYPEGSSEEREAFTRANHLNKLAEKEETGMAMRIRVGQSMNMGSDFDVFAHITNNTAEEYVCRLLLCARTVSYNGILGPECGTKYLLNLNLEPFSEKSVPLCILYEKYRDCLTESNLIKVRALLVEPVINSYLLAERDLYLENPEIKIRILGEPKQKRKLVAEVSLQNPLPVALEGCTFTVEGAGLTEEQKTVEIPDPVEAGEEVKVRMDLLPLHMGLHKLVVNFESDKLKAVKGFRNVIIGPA
# Assay: bodipy-GTP-γS fluorescence binding assay after CaCl2 then EDTA; also BPA/NNDC crosslinking inhibition and trypsin susceptibility
structure (smiles),measurement,value
Cc1ccc(N/C=C2/C(=O)NC(=O)N(c3ccccc3)C2=O)cc1CN1C(=O)c2ccccc2C1=O [TTGM 5826],EC50,20 µM
